# Measured values taken from paper PMC5460220, “Dual PI3K and Wnt pathway inhibition is a synergistic combination against triple negative breast cancer” (NPJ Breast Cancer, 2017).
# Like-named read-outs stand apart in the source and are kept apart here.
# Legend:
# metastatic TNBCs = test system: metastatic TNBCs; set-up: method as in ref 16 = [16]; 16. Dirix, L. Avelumab (MSB0010718C), an anit-PD-L1 antibody, in patients with locally advanced or metastatic breast cancer: a phse Ib JAVELIN solid tumor trial. SABCS Annual. Meeting. Oral. Presentat; settings: patients with metastatic TNBCs, phase Ib JAVELIN trial; cited from earlier work
# [1] = known; cited from earlier work
# porcupine = test system: porcupine; set-up: method as in PMID 24277854; settings: recently published data; cited from earlier work
# tumor growth = test system: tumor growth; set-up: method as in PMID 24277854; settings: recently published data; cited from earlier work
# AXIN2 RNA = experiment: qPCR for AXIN2 RNA in PD study tumors; type: in vivo, NSG mice; settings: TMD-231 xenograft tumors, 7 days of dosing
# Experimental: (§1) To further assess preliminary efficacy and target modulation, a PD experiment was performed. […] Tumors were allowed to grow for 29 days to an average size of ~350 mm^3. […] After only 7 days of treatment, we observed a ~40% decrease in tumor volume with the combination, while tumors actually grew slightly in the face of single agent therapy, again, giving further observations of synergy (Fig. 4a). On the 7th day, the mice had plasma drawn, and then euthanized and the tumor removed. Measurement of buparlisib and WNT974 concentrations in tumor tissue confirmed that these agents were reaching the tumor (Fig. 4b). To assess molecular target modulation, RNA and protein was isolated from each of the tumors in our PD study and biomarker analysis was performed. […] (Supplementary Fig. 3a). […] Target modulation was assessed using qPCR for Axin2 (a marker of WNT974), and western blot for porcupine and phospho-Akt […] (a marker of buparlisib activity). qPCR was performed using Taqman assays (Life Technologies). Protein was isolated after 48 h of treatment in biological triplicates using radioimmunoprecipitation assay buffer and quantified with bicinchoninic acid assay (Thermo Fisher). Protein was run on bis-tris gels (Life Technologies) and transferred to polyvinylidene fluoride membrane. […] Quantification of blots was performed using ImageJ (NIH) and statistical analysis using GraphPad.
# TMD-231 lung metastases = experiment: quantification of lung metastases, Ki67 staining; type: in vivo, NSG mice; settings: TMD-231 xenograft, PD study lungs; combination p = 0.0196
# Text: The TMD-231 cells used in our PD study have a known propensity to metastasize to the lung.[29] To assess the effect of the combination therapy on the growth of lung metastases, lung tissues from our PD study were stained and analyzed for metastatic burden. […] Lungs were extracted, fixed in 10% formalin, and processed in paraffin. Five-micrometer sections were H&E stained, deparaffinized, blocked, and stained using primary anti-human Ki67 antibody (DAKO, Carpinteria, California). The Aperio whole slide digital imaging system was used for imaging (Leica, Wetzlar, Germany). Using the Aperio ScanScope CS, ×20 images were taken at scan times ranging from 1.5 to 2.25 min. The total nuclear labeling index (Ki67) was generated using the Aperio ImageScope standard positive pixel algorithm. The Image Analysis software was used to calculate the percent of positive pixels (brown staining) in one large cross section from each lung.
# [2] = quantification of drug in resected tumors, HPLC-MS/MS; type: in vivo, NSG mice; settings: NSG, mouse, tumor, 7 days once daily, average with standard deviation; for concentration at 1 h: 1 h post the last dose; for concentration at 7 h: 7 h post the last dose
# Experimental: After 7 days of treatment, we observe a ~40% decrease in tumor volume. b Quantification of drug in tumors resected from mice treated in our PD study. Half of the tumors were resected at 1 h post the last dose, and the other half 7 h post the last dose. Using Highperformance liquid chromatography-mass spectrometry (HPLC-MS/MS), buparlisib and WNT974 were quantified as nanograms of drug per gram of tumor tissue (ng/g). Average values with standard deviation are presented. LOQ limit of quantitation c As TMD-231 cells have a known propensity to metastasize to the lung, we assessed the effect of the combination therapy on the growth of lung metastases.
# phospho-AKT = experiment: western blot for phospho-AKT in PD study tumors; type: in vivo, NSG mice; settings: TMD-231 xenograft tumors, 7 days of dosing
# Experimental: as §1
# [3] = test system: TNBC patient-derived xenograft (PDX); experiment: TNBC PDX survival study; type: in vivo, NSG mice; settings: n = 10 per group, once-a-day for a maximum of 28 days, buparlisib 30 mg/kg, WNT974 3 mg/kg
# [4] = test system: porcupine (PORCN) protein; experiment: western blot for porcupine in TNBC cell lines; type: cell-based, human
# Experimental: (§2) To further confirm the induction of porcupine after buparlisib treatment, but at the protein level, we performed western blotting for porcupine and p-AKT before and after treatment with buparlisib.
# (§3) Target modulation was assessed using qPCR for Axin2 (a marker of WNT974), and western blot for porcupine and phospho-Akt Ser 473 (a marker of buparlisib activity). qPCR was performed using Taqman assays (Life Technologies). Protein was isolated after 48 h of treatment in biological triplicates using radioimmunoprecipitation assay buffer and quantified with bicinchoninic acid assay (Thermo Fisher). Protein was run on bis-tris gels (Life Technologies) and transferred to polyvinylidene fluoride membrane. Primary pAKT-Ser 473 antibody (Cell Signaling Technology, Beverly, Massachusetts), β-actin (Cell Signaling Technology), and PORCN (Abcam, Cambridge, England) was incubated overnight with subsequent 1-hour incubation with horseradish peroxidase-conjugate secondary antibody. Staining was performed using a chemiluminescent substrate (ThermoFisher). Imaging was performed using an LAS-4000 Luminescent Image Analyzer (Fujifilm, Tokyo, Japan). Quantification of blots was performed using ImageJ (NIH) and statistical analysis using GraphPad.
# porcupine (PORCN) = experiment: RNA-seq of MDA-MB-231 cells before and after buparlisib treatment; type: cell-based, human; settings: MDA-MB-231, RNA-seq before and after treatment
# Experimental: RNA-sequencing for the buparlisib treated MDA-MB-231 cell line experiment was performed as follows. To enrich for the non-ribosomal RNA transcriptome, RNA samples were first depleted of ribosomal RNA using the Low Input Ribominus Kit (Life Technologies). ERCC spike-in controls (Pool 1) were introduced for all samples (Life Technologies). RNA libraries were constructed using the Ion Total RNA-Seq Kit for AB Library Builder System (Life Technologies) per manufacturer’s instructions. Libraries were barcoded using the IonXpress RNA-Seq Barcode 1–16 Kit (Life Technologies), and libraries were quantified using the Agilent TapeStation 2200 along with the DNA D1K Kit. Libraries were diluted to a concentration of 11 pM prior to templating and emulsion polymerase chain reaction (PCR) using the Ion Template OT2 200 v2 kit along with Ion OneTouch 2 instrument (Life Technologies). Templates were quantified using the IonSphere Quality Control Kit (Life Technologies). Samples were sequenced on an Ion Proton Next-Generation Sequencer using the Ion Proton PI chip and the Ion PI Sequencing 200 v2 kit (Life Technologies). Samples were sequenced using two RNA-seq libraries/samples per chip to an average of 30–40 million reads per sample. Reads were mapped to the human genome (hg19) using the STAR algorithm.[36] Aligned BAM files were then imported into Partek Genomics Suite. […]
# [5] = test system: phosphorylated-AKT (p-AKT Ser 473); experiment: western blot for p-AKT in TNBC cell lines; type: cell-based, human; settings: MDA-MB-231, HCC70 and HCC1143; 48 h treatment
# Experimental: as §2, §3
# advanced TNBC = test system: advanced TNBC; set-up: method as in ref 17 = [17]; 17. Nanda, R. A phase Ib study of pembrolizumab (MK-3475) in patients with advanced triple- negative breast cancer. SABCS Annual. Meeting. Oral. Presentation . (2014).; settings: phase Ib trial; cited from earlier work
# [6] = 3 mg/kg, read-out: WNT974 in tumor tissue
# [7] = 30 mg/kg, read-out: Buparlisib in tumor tissue
molecule,measurement,setting,value
avelumab: an anti-PD-L1 antibody,overall response rate,metastatic TNBCs,8.6%
Cc1cc(-c2ncc(CC(=O)Nc3ccc(-c4cnccn4)cn3)cc2C)ccn1 [WNT974],toxicity / most common side effect in humans,[1],dysgeusia
same,inhibition of its target (porcupine),porcupine,potent inhibition
same,inhibition of tumor growth in vivo,tumor growth,significant inhibition
same,AXIN2 RNA levels in tumors,AXIN2 RNA,decreased
same,lung metastases compared with the control group,TMD-231 lung metastases,small but non-significant decreases
same,concentration at 1 h,[2]; [6],19.2 ± 1.11 ng/g
same,concentration at 7 h,[2]; [6],8.34 ± 0.33 ng/g
same,inhibition of phospho-AKT in tumors,phospho-AKT,not
same,mice survived to the end of the study,[3],0%
Nc1cc(C(F)(F)F)c(-c2cc(N3CCOCC3)nc(N3CCOCC3)n2)cn1 [buparlisib],toxicity / most common side effect in humans,[1],"depression, anxiety, pneumonitis, and liver toxicity"
same,"PORCN protein, quantified western blot","[4]; HCC70, 10 x IC50 buparlisib, p-value 0.0084",significant increase
same,"PORCN protein, quantified western blot","[4]; HCC1143, IC50 buparlisib, p-value 0.013",significant increases
same,"PORCN protein, quantified western blot","[4]; MD-MB-231, IC50 buparlisib, p-value 0.0072",significant increases
same,lung metastases compared with the control group,TMD-231 lung metastases,small but non-significant decreases
same,PORCN over-expression after PI3K inhibition,porcupine (PORCN),~ 8 fold
same,concentration at 1 h,[2]; [7],3590 ± 898 ng/g
same,concentration at 7 h,[2]; [7],2960 ± 683 ng/g
same,phospho-AKT after treatment,[5],potent inhibition
same,inhibition of phospho-AKT in tumors,phospho-AKT,observed
same,mice survived to the end of the study,[3],40%
pembrolizumab: immune checkpoint therapy tested in a phase Ib trial in advanced TNBC,overall response rate,advanced TNBC,18.5%
